{"source": "ChEMBL document CHEMBL1649227", "about": "“In vitro antiviral activity of V-073 against polioviruses” (Antimicrob Agents Chemother, 2009)", "key": {"[1]": {"test_system": "Enterovirus C", "test": "Antiviral activity against Poliovirus 10236 serotype PV1 obtained from circulating vaccine infected in […] LLC-MK2 cells assessed as inhibition of viral-replication induced cytopathic effect", "format": "functional, organism-based", "details": "10236 serotype PV1, LLC-MK2"}, "[2]": {"test_system": "Coxsackievirus B1", "test": "Antiviral activity against Coxsackievirus serotype B1 infected in african green monkey BGMK cells assessed as inhibition of virus induced cytopathic effect after 18 to 24 hrs", "format": "functional, organism-based", "details": "Enterovirus B"}, "[3]": {"test_system": "Enterovirus C", "test": "Antiviral activity against Poliovirus 10689 serotype PV1 obtained from immunodeficient chronic excretor infected in […] LLC-MK2 cells assessed as inhibition of viral-replication induced cytopathic effect", "format": "functional, organism-based", "details": "10689 serotype PV1, LLC-MK2"}, "[4]": {"test": "Solubility of the compound", "format": "physicochemical"}, "[5]": {"test_system": "Enterovirus C", "test": "Antiviral activity against Poliovirus 10804 serotype PV3 obtained from immunodeficient chronic excretor infected in […] LLC-MK2 cells assessed as inhibition of viral-replication induced cytopathic effect", "format": "functional, organism-based", "details": "10804 serotype PV3, LLC-MK2"}, "[6]": {"test_system": "Coxsackievirus B4", "test": "Antiviral activity against Coxsackievirus serotype B4 infected in african green monkey BGMK cells assessed as inhibition of virus induced cytopathic effect after 18 to 24 hrs", "format": "functional, organism-based", "details": "Enterovirus B"}, "[7]": {"test_system": "Enterovirus C", "test": "Antiviral activity against Poliovirus 10235 serotype PV1 obtained from circulating vaccine infected in […] LLC-MK2 cells assessed as inhibition of viral-replication induced cytopathic effect", "format": "functional, organism-based", "details": "10235 serotype PV1, LLC-MK2"}, "[8]": {"test_system": "Enterovirus C", "test": "Antiviral activity against Poliovirus 10221 serotype PV2 obtained from immunodeficient chronic excretor infected in […] LLC-MK2 cells assessed as inhibition of viral-replication induced cytopathic effect", "format": "functional, organism-based", "details": "10221 serotype PV2, LLC-MK2"}, "[9]": {"test_system": "Enterovirus C", "test": "Antiviral activity against Poliovirus 10690 serotype PV1 obtained from circulating vaccine infected in […] LLC-MK2 cells assessed as inhibition of viral-replication induced cytopathic effect", "format": "functional, organism-based", "details": "10690 serotype PV1, LLC-MK2"}, "[10]": {"test_system": "Enterovirus C", "test": "Antiviral activity against Poliovirus 10241 serotype PV1 obtained from circulating vaccine infected in […] LLC-MK2 cells assessed as inhibition of viral-replication induced cytopathic effect", "format": "functional, organism-based", "details": "10241 serotype PV1, LLC-MK2"}, "[11]": {"test_system": "Enterovirus C", "test": "Antiviral activity against Poliovirus 10226 serotype PV2 obtained from immunodeficient chronic excretor infected in […] LLC-MK2 cells assessed as inhibition of viral-replication induced cytopathic effect", "format": "functional, organism-based", "details": "10226 serotype PV2, LLC-MK2"}, "[12]": {"test_system": "Enterovirus C", "test": "Antiviral activity against Poliovirus 10227 serotype PV2 obtained from immunodeficient chronic excretor infected in […] LLC-MK2 cells assessed as inhibition of viral-replication induced cytopathic effect", "format": "functional, organism-based", "details": "10227 serotype PV2, LLC-MK2"}, "[13]": {"test_system": "Enterovirus C", "test": "Antiviral activity against Poliovirus 10223 serotype PV1 obtained from immunodeficient chronic excretor infected in […] LLC-MK2 cells assessed as inhibition of viral-replication induced cytopathic effect", "format": "functional, organism-based", "details": "10223 serotype PV1, LLC-MK2"}, "[14]": {"test_system": "Enterovirus C", "test": "Antiviral activity against Poliovirus 10234 serotype PV2 obtained from circulating vaccine infected in […] LLC-MK2 cells assessed as inhibition of viral-replication induced cytopathic effect", "format": "functional, organism-based", "details": "10234 serotype PV2, LLC-MK2"}, "[15]": {"test_system": "Coxsackievirus A9", "test": "Antiviral activity against Coxsackievirus serotype A9 infected in african green monkey BGMK cells assessed as inhibition of virus induced cytopathic effect after 18 to 24 hrs", "format": "functional, organism-based", "details": "Enterovirus B"}, "[16]": {"test": "Selectivity index, ratio of CC50 for human HeLa cells to EC50 for poliovirus", "format": "toxicity, cell-based", "details": "read-out: Ratio CC50/EC50"}, "[17]": {"test_system": "Enterovirus C", "test": "Antiviral activity against Poliovirus 10239 serotype PV1 obtained from circulating vaccine infected in […] LLC-MK2 cells assessed as inhibition of viral-replication induced cytopathic effect", "format": "functional, organism-based", "details": "10239 serotype PV1, LLC-MK2"}, "[18]": {"test_system": "Enterovirus C", "test": "Antiviral activity against Poliovirus 10225 serotype PV1 obtained from immunodeficient chronic excretor infected in […] LLC-MK2 cells assessed as inhibition of viral-replication induced cytopathic effect", "format": "functional, organism-based", "details": "10225 serotype PV1, LLC-MK2"}, "[19]": {"test_system": "Enterovirus C", "test": "Antiviral activity against Poliovirus 10228 serotype PV2 obtained from immunodeficient chronic excretor infected in […] LLC-MK2 cells assessed as inhibition of viral-replication induced cytopathic effect", "format": "functional, organism-based", "details": "10228 serotype PV2, LLC-MK2"}, "[20]": {"test_system": "Enterovirus C", "test": "Antiviral activity against Poliovirus 10229 serotype PV2 obtained from circulating vaccine infected in […] LLC-MK2 cells assessed as inhibition of viral-replication induced cytopathic effect", "format": "functional, organism-based", "details": "10229 serotype PV2, LLC-MK2"}, "[21]": {"test_system": "Enterovirus C", "test": "Antiviral activity against Poliovirus 10242 serotype PV1 obtained from circulating vaccine infected in […] LLC-MK2 cells assessed as inhibition of viral-replication induced cytopathic effect", "format": "functional, organism-based", "details": "10242 serotype PV1, LLC-MK2"}, "[22]": {"test_system": "Enterovirus C", "test": "Antiviral activity against Poliovirus PV2-P712 serotype PV2 obtained from immunodeficient chronic excretor infected in […] LLC-MK2 cells assessed as inhibition of viral-replication induced cytopathic effect", "format": "functional, organism-based"}, "[23]": {"test_system": "Enterovirus C", "test": "Antiviral activity against Poliovirus 10805 serotype PV3 infected in […] LLC-MK2 cells assessed as inhibition of viral-replication induced cytopathic effect", "format": "functional, organism-based", "details": "10805 serotype PV3, LLC-MK2"}, "[24]": {"test_system": "Human enterovirus 70", "test": "Antiviral activity against Enterovirus serotype 70 infected in african green monkey BGMK cells assessed as inhibition of virus induced cytopathic effect after 18 to 24 hrs", "format": "functional, cell-based, enterovirus D70", "details": "Enterovirus D"}, "[25]": {"test_system": "Enterovirus C", "test": "Antiviral activity against Poliovirus Mahoney serotype PV1 infected in […] LLC-MK2 cells assessed as inhibition of viral-replication induced cytopathic effect", "format": "functional, organism-based"}, "[26]": {"test": "Selectivity index, ratio of CC50 for african green monkey BGMK cells to EC50 for poliovirus", "format": "toxicity, cell-based", "details": "read-out: Ratio CC50/EC50"}, "[27]": {"test_system": "Enterovirus C", "test": "Antiviral activity against Poliovirus 10695 serotype PV1 obtained from immunodeficient chronic excretor infected in […] LLC-MK2 cells assessed as inhibition of viral-replication induced cytopathic effect", "format": "functional, organism-based", "details": "10695 serotype PV1, LLC-MK2"}, "[28]": {"test_system": "Enterovirus C", "test": "Antiviral activity against Poliovirus 10694 serotype PV1 obtained from immunodeficient chronic excretor infected in […] LLC-MK2 cells assessed as inhibition of viral-replication induced cytopathic effect", "format": "functional, organism-based", "details": "10694 serotype PV1, LLC-MK2"}, "[29]": {"test_system": "Enterovirus C", "test": "Antiviral activity against Poliovirus 10240 serotype PV1 obtained from circulating vaccine infected in […] LLC-MK2 cells assessed as inhibition of viral-replication induced cytopathic effect", "format": "functional, organism-based", "details": "10240 serotype PV1, LLC-MK2"}, "[30]": {"test_system": "Enterovirus C", "test": "Antiviral activity against Poliovirus Lansing serotype PV2 infected in […] LLC-MK2 cells assessed as inhibition of viral-replication induced cytopathic effect", "format": "functional, organism-based"}}, "data": [{"smiles": "COc1ccc(OCc2ccc(COc3c(Cl)cccc3Cl)cc2)c(Cl)c1", "values": [{"measurement": "EC50", "setting": "[1]", "value": 29, "unit": "nM"}, {"measurement": "EC50", "setting": "[2]", "value": 3790, "unit": "nM"}, {"measurement": "EC50", "setting": "[3]", "value": 42, "unit": "nM"}, {"measurement": "solubility", "setting": "[4]", "value": 14, "unit": "µM"}, {"measurement": "EC50", "setting": "[5]", "value": 42, "unit": "nM"}, {"measurement": "EC50", "setting": "[6]", "value": 3790, "unit": "nM"}, {"measurement": "EC50", "setting": "[7]", "value": 18, "unit": "nM"}, {"measurement": "EC50", "setting": "[8]", "value": 27, "unit": "nM"}, {"measurement": "EC50", "setting": "[9]", "value": 29, "unit": "nM"}, {"measurement": "EC50", "setting": "[10]", "value": 83, "unit": "nM"}, {"measurement": "EC50", "setting": "[11]", "value": 19, "unit": "nM"}, {"measurement": "EC50", "setting": "[12]", "value": 19, "unit": "nM"}, {"measurement": "EC50", "setting": "[13]", "value": 10, "unit": "nM"}, {"measurement": "EC50", "setting": "[14]", "value": 9, "unit": "nM"}, {"measurement": "EC50", "setting": "[15]", "value": 3790, "unit": "nM"}, {"measurement": "selectivity ratio", "setting": "[16]", "value": 75}, {"measurement": "EC50", "setting": "[17]", "value": 14, "unit": "nM"}, {"measurement": "EC50", "setting": "[18]", "value": 17, "unit": "nM"}, {"measurement": "EC50", "setting": "[19]", "value": 126, "unit": "nM"}, {"measurement": "EC50", "setting": "[20]", "value": 20, "unit": "nM"}, {"measurement": "EC50", "setting": "[21]", "value": 17, "unit": "nM"}, {"measurement": "EC50", "setting": "[22]", "value": 16, "unit": "nM"}, {"measurement": "EC50", "setting": "[23]", "value": 29, "unit": "nM"}, {"measurement": "MIC90", "setting": "[24]", "value": 1.42, "unit": "µM"}, {"measurement": "EC50", "setting": "[24]; BGMK", "value": 3470, "unit": "nM"}, {"measurement": "EC50", "setting": "[25]", "value": 76, "unit": "nM"}, {"measurement": "selectivity ratio", "setting": "[26]", "value": 75}, {"measurement": "EC50", "setting": "[27]", "value": 8, "unit": "nM"}, {"measurement": "EC50", "setting": "[28]", "value": 14, "unit": "nM"}, {"measurement": "EC50", "setting": "[29]", "value": 15, "unit": "nM"}, {"measurement": "EC50", "setting": "[30]", "value": 7, "unit": "nM"}]}]}
